Test results as given in patent US12247015B2, “3-amino-4H-benzo[e][1,2,4]thiadiazine 1,1-dioxide derivatives as inhibitors of MRGX2” (Solent Therapeutics, LLC, priority 2019, dated 2025).

What follows are compounds tested against hMRGX2 (CHO-K1 cells overexpressing MRGX2) (Homo sapiens (Human), UniProt Q96LB1) (assay: In vitro inhibition (EC50) of intracellular calcium flux, FLIPR Tetra, substance P stimulation). Conditions: stimulated with MRGX2 ligand substance P, FLIPR Calcium 5, read-out: hMRGX2 Cellular Potency (pEC50) (converted).
Sequence of hMRGX2 (CHO-K1 cells overexpressing MRGX2) (Q96LB1 whole entry): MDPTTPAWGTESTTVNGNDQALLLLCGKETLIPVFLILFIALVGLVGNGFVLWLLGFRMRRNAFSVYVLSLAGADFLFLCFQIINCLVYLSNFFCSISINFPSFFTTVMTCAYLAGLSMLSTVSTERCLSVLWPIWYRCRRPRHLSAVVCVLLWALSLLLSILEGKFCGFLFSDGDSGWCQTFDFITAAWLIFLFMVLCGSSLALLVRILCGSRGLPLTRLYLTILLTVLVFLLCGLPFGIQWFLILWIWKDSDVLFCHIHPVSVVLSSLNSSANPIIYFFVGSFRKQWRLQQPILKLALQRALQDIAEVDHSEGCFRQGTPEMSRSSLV
Type: cell-based
Description: In Vitro Inhibition (EC50) of Intracellular Calcium Flux
The release of intracellular calcium following stimulation of cells with substance P in the presence or absence of inhibitor compounds was measured using the FLIPR Tetra® system. CHO-K1 cells overexpressing MRGX2 were seeded into 384-well plates (Black clear bottom, TC-treated, Fisher #07-200-655) and incubated overnight to allow for cell attachment. Media was removed, and 1× loading buffer (FLIPR® Calcium 5 assay solution, Molecular Devices, per manufacturer specifications) was added. The plates were incubated at 37° C. for 30 minutes. Test compounds were added to cells (11-point dose response, 10 µM maximum concentration) and fluorescence measured (120 seconds, in real time) using the FLIPR Tetra® system. Immediately following, MRGX2 ligand substance P was added at a final concentration of 1 µM and fluorescence measured (120 seconds, in real time) using the FLIPR Tetra® system. The data for the examples are reported as pEC50.
Work on `O=S1(=O)N=C(NCc2ccncc2)Nc2c(-c3cc(F)cc(F)c3)cccc21` [Example 82, 5-(3,5-difluorophenyl)-3-((pyridin-4-ylmethyl)amino)-4H-benzo[e][1,2,4]thiadiazine 1,1-dioxide] yielded an EC50 of 1010 nM. `O=S1(=O)N=C(NCc2ccccn2)Nc2c(-c3cc(F)cc(F)c3)cccc21` [Example 83, 5-(3,5-difluorophenyl)-3-((pyridin-2-ylmethyl)amino)-4H-benzo[e][1,2,4]thiadiazine 1,1-dioxide] was tested, and the EC50 was 423 nM. `CCC(CNC1=NS(=O)(=O)c2cccc(-c3cc(F)cc(F)c3)c2N1)OC` (stereo not shown) [Example 87, 5-(3,5-difluorophenyl)-3-((2-methoxybutyl)amino)-4H-benzo[e][1,2,4]thiadiazine 1,1-dioxide] was tested, and the EC50 was 240 nM. Compound `O=S1(=O)N=C(NCc2ccccc2)Nc2c(-c3cc(F)cc(F)c3)cccc21` [Example 88, 3-(benzylamino)-5-(3,5-difluorophenyl)-4H-benzo[e][1,2,4]thiadiazine 1,1-dioxide] has an EC50 of 75.2 nM. `CNC1=NS(=O)(=O)c2cccc(-c3cc(Cl)ccc3C#N)c2N1` [Example 90, 4-chloro-2-(3-(methylamino)-1,1-dioxido-4H-benzo[e][1,2,4]thiadiazin-5-yl)benzonitrile] was tested, and the EC50 was 973 nM. `CCc1ccccc1-c1cccc2c1NC(NC)=NS2(=O)=O` [Example 91, 5-(2-ethylphenyl)-3-(methylamino)-4H-benzo[e][1,2,4]thiadiazine 1,1-dioxide] gave an EC50 of 81.8 nM. Work on `CNC1=NS(=O)(=O)c2cccc(-c3ccc(C)cc3Cl)c2N1` [Example 92, 5-(2-chloro-4-methylphenyl)-3-(methylamino)-4H-benzo[e][1,2,4]thiadiazine 1,1-dioxide] yielded an EC50 of 92.7 nM. `CNC1=NS(=O)(=O)c2cccc(-c3cc(F)ccc3Cl)c2N1` [Example 93, 5-(2-chloro-5-fluorophenyl)-3-(methylamino)-4H-benzo[e][1,2,4]thiadiazine 1,1-dioxide] gave an EC50 of 181 nM. Work on `CNC1=NS(=O)(=O)c2cccc(-c3ccc(F)cc3Cl)c2N1` [Example 94, 5-(2-chloro-4-fluorophenyl)-3-(methylamino)-4H-benzo[e][1,2,4]thiadiazine 1,1-dioxide] yielded an EC50 of 235 nM. `CNC1=NS(=O)(=O)c2cccc(-c3cccc(F)c3C)c2N1` [Example 95, 5-(3-fluoro-2-methylphenyl)-3-(methylamino)-4H-benzo[e][1,2,4]thiadiazine 1,1-dioxide] gave an EC50 of 350 nM. Work on `CNC1=NS(=O)(=O)c2cccc(-c3cc(F)cc(F)c3F)c2N1` [Example 96, 3-(methylamino)-5-(2,3,5-trifluorophenyl)-4H-benzo[e][1,2,4]thiadiazine 1,1-dioxide] yielded an EC50 of 598 nM. `CNC1=NS(=O)(=O)c2cc(C)cc(-c3cccc(F)c3Cl)c2N1` [Example 97, 5-(2-chloro-3-fluorophenyl)-7-methyl-3-(methylamino)-4H-benzo[e][1,2,4]thiadiazine 1,1-dioxide] was tested, and the EC50 was 589 nM. For `Cc1cc(-c2cccc3c2NC(Nc2ccc(C(C)C)cc2)=NS3(=O)=O)n[nH]1` [Example 98, 3-((4-isopropylphenyl)amino)-5-(5-methyl-1H-pyrazol-3-yl)-4H-benzo[e][1,2,4]thiadiazine 1,1-dioxide], the EC50 was 289 nM. In the case of `CC(C)c1ccc(NC2=NS(=O)(=O)c3cccc(-c4cnn(C(F)F)c4)c3N2)cc1` [Example 99, 5-(1-(difluoromethyl)-1H-pyrazol-4-yl)-3-((4-isopropylphenyl)amino)-4H-benzo[e][1,2,4]thiadiazine 1,1-dioxide], the EC50 is reported as 760 nM. With `CC(C)c1ccc(NC2=NS(=O)(=O)c3cccc(-n4cccn4)c3N2)cc1` [Example 100, 3-((4-isopropylphenyl)amino)-5-(1H-pyrazol-1-yl)-4H-benzo[e][1,2,4]thiadiazine 1,1-dioxide] the EC50 was 766 nM. With `CC(C)c1ccc(NC2=NS(=O)(=O)c3cccc(-c4cnn(C5COC5)c4)c3N2)cc1` [Example 101, 3-((4-isopropylphenyl)amino)-5-(1-(oxetan-3-yl)-1H-pyrazol-4-yl)-4H-benzo[e][1,2,4]thiadiazine 1,1-dioxide] the EC50 was 45.7 nM. With `CC(C)c1ccc(NC2=NS(=O)(=O)c3cccc(-c4cnn(C5CC(F)(F)C5)c4)c3N2)cc1` [Example 104, 5-(1-(3,3-difluorocyclobutyl)-1H-pyrazol-4-yl)-3-((4-isopropylphenyl)amino)-4H-benzo[e][1,2,4]thiadiazine 1,1-dioxide] the EC50 was 89.1 nM. For `Cc1n[nH]cc1-c1cccc2c1NC(Nc1ccc(C(C)C)cc1)=NS2(=O)=O` [Example 106, 3-((4-isopropylphenyl)amino)-5-(3-methyl-1H-pyrazol-4-yl)-4H-benzo[e][1,2,4]thiadiazine 1,1-dioxide], the EC50 was 70.1 nM. `CC(C)c1ccc(NC2=NS(=O)(=O)c3cccc(-c4ccn(C)n4)c3N2)cc1` [Example 108, 3-((4-isopropylphenyl)amino)-5-(1-methyl-1H-pyrazol-3-yl)-4H-benzo[e][1,2,4]thiadiazine 1,1-dioxide] was tested, and the EC50 was 592 nM. Compound `CC(C)c1ccc(NC2=NS(=O)(=O)c3cccc(C(C)C)c3N2)cc1` [Example 110, 5-isopropyl-3-((4-isopropylphenyl)amino)-4H-benzo[e][1,2,4]thiadiazine 1,1-dioxide] has an EC50 of 35.2 nM. `CC(C)c1ccc(NC2=NS(=O)(=O)c3cccc(C4CCC4)c3N2)cc1` [Example 111, 5-cyclobutyl-3-((4-isopropylphenyl)amino)-4H-benzo[e][1,2,4]thiadiazine 1,1-dioxide] showed an EC50 of 106 nM. For `CC(C)c1ccc(NC2=NS(=O)(=O)c3cccc(-c4ccccc4Cl)c3N2)cc1` [Example 112, 5-(2-chlorophenyl)-3-((4-isopropylphenyl)amino)-4H-benzo[e][1,2,4]thiadiazine 1,1-dioxide], the EC50 was 165 nM. Compound `Cc1cnccc1-c1cccc2c1NC(Nc1ccc(C(C)C)cc1)=NS2(=O)=O` [Example 113, 3-((4-isopropylphenyl)amino)-5-(3-methylpyridin-4-yl)-4H-benzo[e][1,2,4]thiadiazine 1,1-dioxide] has an EC50 of 233 nM. `Cc1nn(C)cc1-c1cccc2c1NC(Nc1cccc(C(C)C)c1)=NS2(=O)=O` [Example 115, 5-(1,3-dimethyl-1H-pyrazol-4-yl)-3-((3-isopropylphenyl)amino)-4H-benzo[e][1,2,4]thiadiazine 1,1-dioxide] showed an EC50 of 54.8 nM. With `CC(C)c1ccc(NC2=NS(=O)(=O)c3cccc(-c4ccccc4Cl)c3N2)cn1` [Example 117, 5-(2-chlorophenyl)-3-((6-isopropylpyridin-3-yl)amino)-4H-benzo[e][1,2,4]thiadiazine 1,1-dioxide] the EC50 was 197 nM. In the case of `CC(C)c1ccc(NC2=NS(=O)(=O)c3cccc(C4CC4)c3N2)cn1` [Example 118, 5-cyclopropyl-3-((6-isopropylpyridin-3-yl)amino)-4H-benzo[e][1,2,4]thiadiazine 1,1-dioxide], the EC50 is reported as 378 nM. `O=S1(=O)N=C(NCc2ncccc2F)Nc2c(C3CC3)cccc21` [Example 119, 5-cyclopropyl-3-(((3-fluoropyridin-2-yl)methyl)amino)-4H-benzo[e][1,2,4]thiadiazine 1,1-dioxide] showed an EC50 of 484 nM. Compound `COc1cccc(CNC2=NS(=O)(=O)c3cccc(C4CC4)c3N2)n1` [Example 120, 5-cyclopropyl-3-(((6-methoxypyridin-2-yl)methyl)amino)-4H-benzo[e][1,2,4]thiadiazine 1,1-dioxide] has an EC50 of 578 nM.
